Measured values: ChEMBL document CHEMBL1201862, “PubChem BioAssay data set” (2004)
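Values below derive from 48-hour exposures of cells grown in 96-well plates, with endpoints linearly interpolated between the two concentrations bracketing the appropriate inhibition level. Here, GI50 denotes the concentration required for 50% inhibition of growth.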 Active and inactive are the calls of the source. No stated cut-off is given here; in the data, active = GI50 up to about 1.1 µM and inactive = higher.

Assays:
Assay in all cases: DTP human tumour cell line panel, 48 h
[1] = tested on: UACC-257
[2] = tested on: SF-539
[3] = tested on: NCI-H522
[4] = tested on: M14
[5] = tested on: COLO 205
[6] = tested on: HCT-15
[7] = tested on: HT-29
[8] = tested on: CCRF-CEM
[9] = tested on: MDA-N
[10] = tested on: MCF7
[11] = tested on: SF-295
[12] = tested on: KM12
[13] = tested on: SF-268
[14] = tested on: PC-3
[15] = tested on: HOP-92
[16] = tested on: T47D
[17] = tested on: SK-MEL-28
[18] = tested on: OVCAR-5
[19] = tested on: SR
[20] = tested on: U-251
[21] = tested on: ACHN
[22] = tested on: LOX IMVI
[23] = tested on: MOLT-4
[24] = tested on: CAKI-1
[25] = tested on: OVCAR-8
[26] = tested on: HOP-62
[27] = tested on: NCI-H23
[28] = tested on: HCC 2998
[29] = tested on: IGROV-1
[30] = tested on: DU-145
[31] = tested on: SK-MEL-5
[32] = tested on: MDA-MB-435
[33] = tested on: RPMI-8226
[34] = tested on: NCI-H460
[35] = tested on: MDA-MB-231
[36] = tested on: UO-31
[37] = tested on: UACC-62
[38] = tested on: SNB-75
[39] = tested on: OVCAR-4
[40] = tested on: NCI-H226
[41] = tested on: 786-0
[42] = tested on: K562
[43] = tested on: A498
[44] = tested on: Hs-578T
[45] = tested on: SN12C
[46] = tested on: RXF 393
[47] = tested on: SK-OV-3
[48] = tested on: SK-MEL-2
[49] = tested on: HL-60
[50] = tested on: A549
[51] = tested on: HCT-116
[52] = tested on: SW-620
[53] = tested on: TK-10
[54] = tested on: NCI/ADR-RES
[55] = tested on: EKVX
[56] = tested on: OVCAR-3
[57] = tested on: SNB-19
[58] = tested on: Malme-3M

Structure (SMILES): C=C1C(=O)O[C@H]2/C=C(/C)C3=CC(=O)[C@@](C)(C[C@@H](OC(=O)/C(C)=C\C)C12)O3 (stereo partly drawn)
- GI50 [1]: 1.73 µM (inactive)
- GI50 [2]: 1.93 µM (inactive)
- GI50 [3]: 0.138 µM (active)
- GI50 [4]: 1.85 µM (inactive)
- GI50 [5]: 0.284 µM (active)
- GI50 [6]: 0.216 µM
- GI50 [7]: 0.265 µM (active)
- GI50 [8]: 0.0953 µM (active)
- GI50 [9]: 0.684 µM (active)
- GI50 [10]: 0.36 µM (active)
- GI50 [11]: 12 µM (inactive)
- GI50 [12]: 2.86 µM (inactive)
- GI50 [13]: 1.88 µM (inactive)
- GI50 [14]: 2.48 µM (inactive)
- GI50 [15]: 0.703 µM (active)
- GI50 [16]: 0.811 µM (active)
- GI50 [17]: 0.708 µM (active)
- GI50 [18]: 2.4 µM (inactive)
- GI50 [19]: 0.083 µM (active)
- GI50 [20]: 2.43 µM (inactive)
- GI50 [21]: 0.232 µM (active)
- GI50 [22]: 0.272 µM (active)
- GI50 [23]: 1.87 µM (inactive)
- GI50 [24]: 0.185 µM (active)
- GI50 [25]: 0.863 µM (active)
- GI50 [26]: 9.4 µM (inactive)
- GI50 [27]: 2.42 µM (inactive)
- GI50 [28]: 1.59 µM (inactive)
- GI50 [29]: 0.971 µM (active)
- GI50 [30]: 2.58 µM (inactive)
- GI50 [31]: 1.03 µM (active)
- GI50 [32]: 1.21 µM (inactive)
- GI50 [33]: 0.0589 µM (active)
- GI50 [34]: 2.35 µM (inactive)
- GI50 [35]: 3.05 µM (inactive)
- GI50 [36]: 1.21 µM (inactive)
- GI50 [37]: 0.891 µM (active)
- GI50 [38]: 8.69 µM (inactive)
- GI50 [39]: 3.95 µM (inactive)
- GI50 [40]: 2.59 µM (inactive)
- GI50 [41]: 0.426 µM (active)
- GI50 [42]: 0.154 µM (active)
- GI50 [43]: 5.2 µM (inactive)
- GI50 [44]: 6.05 µM (inactive)
- GI50 [45]: 1.36 µM (inactive)
- GI50 [46]: 0.265 µM (active)
- GI50 [47]: 12.2 µM (inactive)
- GI50 [48]: 3.02 µM (inactive)
- GI50 [49]: < 0.0451 µM (active)
- GI50 [50]: 4.05 µM (inactive)
- GI50 [51]: 0.377 µM (active)
- GI50 [52]: 0.128 µM (active)

Structure (SMILES): NC(C/C=C/P(=O)(O)O)C(=O)O (stereo not drawn)
- GI50 [1]: > 100 µM (inactive)
- GI50 [2]: > 100 µM (inactive)
- GI50 [3]: > 100 µM (inactive)
- GI50 [4]: > 100 µM (inactive)
- GI50 [5]: > 100 µM (inactive)
- GI50 [6]: > 100 µM
- GI50 [7]: > 100 µM (inactive)
- GI50 [8]: > 100 µM (inactive)
- GI50 [53]: > 100 µM (inactive)
- GI50 [9]: > 100 µM (inactive)
- GI50 [54]: > 100 µM (inactive)
- GI50 [10]: > 100 µM (inactive)
- GI50 [11]: > 100 µM (inactive)
- GI50 [12]: > 100 µM (inactive)
- GI50 [13]: 58.1 µM (inactive)
- GI50 [14]: > 100 µM (inactive)
- GI50 [15]: > 100 µM (inactive)
- GI50 [16]: > 100 µM (inactive)
- GI50 [17]: > 100 µM (inactive)
- GI50 [55]: > 100 µM (inactive)
- GI50 [18]: > 100 µM (inactive)
- GI50 [19]: > 100 µM (inactive)
- GI50 [20]: > 100 µM (inactive)
- GI50 [21]: > 100 µM (inactive)
- GI50 [22]: > 100 µM (inactive)
- GI50 [23]: > 100 µM (inactive)
- GI50 [24]: 2 µM (inactive)
- GI50 [25]: > 100 µM (inactive)
- GI50 [27]: > 100 µM (inactive)
- GI50 [28]: > 100 µM (inactive)
- GI50 [29]: > 100 µM (inactive)
- GI50 [30]: > 100 µM (inactive)
- GI50 [31]: > 100 µM (inactive)
- GI50 [32]: > 100 µM (inactive)
- GI50 [34]: > 100 µM (inactive)
- GI50 [35]: > 100 µM (inactive)
- GI50 [56]: > 100 µM (inactive)
- GI50 [36]: > 100 µM (inactive)
- GI50 [37]: > 100 µM (inactive)
- GI50 [38]: 14.1 µM (inactive)
- GI50 [39]: > 100 µM (inactive)
- GI50 [42]: > 100 µM (inactive)
- GI50 [57]: > 100 µM (inactive)
- GI50 [44]: > 100 µM (inactive)
- GI50 [45]: > 100 µM (inactive)
- GI50 [46]: > 100 µM (inactive)
- GI50 [47]: > 100 µM (inactive)
- GI50 [48]: > 100 µM (inactive)
- GI50 [49]: > 100 µM (inactive)
- GI50 [50]: > 100 µM (inactive)
- GI50 [51]: > 100 µM (inactive)
- GI50 [52]: > 100 µM (inactive)

Structure (SMILES): CN(C)CCCOCCn1c2c(c3ccccc31)CCCC2
- GI50 [1]: 18.2 µM (inactive)
- GI50 [2]: 18.7 µM (inactive)
- GI50 [4]: 15.7 µM (inactive)
- GI50 [5]: 16.6 µM (inactive)
- GI50 [6]: 15 µM
- GI50 [7]: 15 µM (inactive)
- GI50 [8]: 12.9 µM (inactive)
- GI50 [53]: 18.4 µM (inactive)
- GI50 [9]: 14.9 µM (inactive)
- GI50 [54]: 16.3 µM (inactive)
- GI50 [10]: 16.4 µM (inactive)
- GI50 [11]: 20 µM (inactive)
- GI50 [12]: 21.2 µM (inactive)
- GI50 [13]: 26.9 µM (inactive)
- GI50 [14]: 12.9 µM (inactive)
- GI50 [15]: 13.2 µM (inactive)
- GI50 [16]: 23.2 µM (inactive)
- GI50 [17]: 16.6 µM (inactive)
- GI50 [55]: 21.9 µM (inactive)
- GI50 [18]: 16.9 µM (inactive)
- GI50 [58]: 18 µM (inactive)
- GI50 [19]: 18.1 µM (inactive)
- GI50 [20]: 17.9 µM (inactive)
- GI50 [21]: 15.2 µM (inactive)
- GI50 [22]: 16.1 µM (inactive)
- GI50 [23]: 13.7 µM (inactive)
- GI50 [24]: 15.2 µM (inactive)
- GI50 [25]: 17.5 µM (inactive)
- GI50 [26]: 14.7 µM (inactive)
- GI50 [27]: 15.1 µM (inactive)
- GI50 [28]: 14.4 µM (inactive)
- GI50 [29]: 15.8 µM (inactive)
- GI50 [30]: 27.9 µM (inactive)
- GI50 [31]: 12.7 µM (inactive)
- GI50 [32]: 17.7 µM (inactive)
- GI50 [33]: 15.9 µM (inactive)
- GI50 [34]: 15 µM (inactive)
- GI50 [35]: 13 µM (inactive)
- GI50 [56]: 18.2 µM (inactive)
- GI50 [36]: 17.1 µM (inactive)
- GI50 [37]: 16.7 µM (inactive)
- GI50 [38]: 13.1 µM (inactive)
- GI50 [39]: 15.2 µM (inactive)
- GI50 [40]: 29.6 µM (inactive)
- GI50 [41]: 15.2 µM (inactive)
- GI50 [42]: 12.9 µM (inactive)
- GI50 [44]: 19.7 µM (inactive)
- GI50 [45]: 16.9 µM (inactive)
- GI50 [47]: > 10 µM (inactive)
- GI50 [48]: 13.4 µM (inactive)
- GI50 [49]: 5.19 µM (inactive)
- GI50 [50]: 17 µM (inactive)
- GI50 [51]: 15.3 µM (inactive)
- GI50 [52]: 18.7 µM (inactive)
